# Source: patent US9771370B2, “Compounds for the inhibition of indoleamine-2,3-dioxygenase” (Merck Patent GmbH, priority 2014, dated 2017)
# Molecular target: Recombinant human IDO (Homo sapiens, UniProt P14902)
# Assay: Bridge-IT tryptophan fluorescence assay of human IDO-1 inhibition
# Type: biochemical
# Settings: recombinant human IDO 7.5 nM, L-tryptophan
# Summary of the method: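 Two protocol variants: 100 μM L-Trp for 90 min at 37 °C, or 30 min enzyme–compound pre-incubation at 25 °C, then 50 μM L-Trp for 60 min at 25 °C. Reaction stopped in Bridge-IT solution A for 30 min at 30 °C.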
# Chain of Recombinant human IDO (P14902 whole entry): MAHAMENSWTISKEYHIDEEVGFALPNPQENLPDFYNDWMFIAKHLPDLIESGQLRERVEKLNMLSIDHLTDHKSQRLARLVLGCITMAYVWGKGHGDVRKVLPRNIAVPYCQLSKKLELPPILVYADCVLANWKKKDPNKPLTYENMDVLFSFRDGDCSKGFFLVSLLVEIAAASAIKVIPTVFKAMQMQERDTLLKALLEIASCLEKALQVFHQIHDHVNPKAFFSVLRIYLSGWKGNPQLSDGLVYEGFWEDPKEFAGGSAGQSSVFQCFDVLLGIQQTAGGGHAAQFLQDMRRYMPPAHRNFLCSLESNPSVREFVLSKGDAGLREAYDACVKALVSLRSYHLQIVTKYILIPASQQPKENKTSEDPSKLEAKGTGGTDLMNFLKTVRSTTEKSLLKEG
row,SMILES,IC50
1,"Fc1cccc2c1C(CCC1(F)CCCCC1)n1cncc1-2 (single isomer, unassigned) [Compound 19b, 6-fluoro-5-(2-(1-fluorocyclohexyl)ethyl)-5H-imidazo[5,1-a]isoindole]",< 100 nM
2,"FC1(CCC2c3ncccc3-c3cncn32)CCC2(CC1)CC2 (single isomer, unassigned) [Compound 30b, 7-(2-{6-fluorospiro[2.5]octan-6-yl}ethyl)-4,6,9-triazatricyclo[6.4.0.0^[2,6]]dodeca-1(8),2,4,9,11-pentaene]",> 1000 nM
3,"CC1(C)CCC(C(O)CC2c3nc(F)ccc3-c3cncn32)CC1 (single isomer, unassigned) [Compound 25a, 1-(4,4-dimethylcyclohexyl)-2-[10-fluoro-4,6,9-triazatricyclo[6.4.0.0^[2,6]]dodeca-1(8),2,4,9,11-pentaen-7-yl]ethan-1-ol]",> 1000 nM
4,"FC1(CCC2c3ncccc3-c3cncn32)CCCCC1 (single isomer, unassigned) [Compound 18b, 7-[2-(1-fluorocyclohexyl)ethyl]-4,6,9-triazatricyclo[6.4.0.0^[2,6]]dodeca-1(8),2,4,9,11-pentaene]",> 1000 nM
5,"OC(CC1c2ncccc2-c2cncn21)C1(F)CCC(F)(F)CC1 (single isomer, unassigned) [Compound 87d, 2-[4,6,9-triazatricyclo[6.4.0.0^[2,6]]dodeca-1(8),2,4,9,11-pentaen-7-yl]-1-(1,4,4-trifluorocyclohexyl)ethan-1-ol]",100 to 1000 nM
6,"OC(CC1c2nc(Cl)ccc2-c2cncn21)C1CCCCC1 (single isomer, unassigned) [Compound 55b, 2-[10-chloro-4,6,9-triazatricyclo[6.4.0.0^[2,6]]dodeca-1(8),2,4,9,11-pentaen-7-yl]-1-cyclohexylethan-1-ol]",> 1000 nM
7,"OCC1CCC(F)(CCC2c3c(Cl)cccc3-c3cncn32)CC1 (single isomer, unassigned) [Compound 105a, [4-[2-[6-chloro-5H-imidazo[4,3-a]isoindol-5-yl]ethyl]-4-fluorocyclohexyl]methanol]",> 1000 nM
8,"FC1(CCC2c3c(Cl)cccc3-c3cncn32)CCCCC1 (single isomer, unassigned) [Compound 70a, 6-chloro-5-[2-(1-fluorocyclohexyl)ethyl]-5H-imidazo[4,3-a]isoindole]",> 1000 nM
9,"OC(CC1c2nc(F)ccc2-c2cncn21)C1CCC(F)(F)CC1 (single isomer, unassigned) [Compound 26b, 1-(4,4-difluorocyclohexyl)-2-[10-fluoro-4,6,9-triazatricyclo[6.4.0.0^[2,6]]dodeca-1(8),2,4,9,11-pentaen-7-yl]ethan-1-ol]",100 to 1000 nM
